According to patent US4118561A, “7-(Substituted)-7H-pyrrolo[3,2-f]quinazoline-1,3-diamines” (priority 1977, dated 1978):
Converted amounts (≈) assume the structure as drawn.

Key:
K. pneumoniae 10031 = assay: In vitro antibacterial activity (MIC), K. pneumoniae 10031; conditions: Klebsiella pneumoniae, 10031, 18 h
S. paratyphi 11737 = assay: In vitro antibacterial activity (MIC), S. paratyphi 11737; assay type: cell-based; conditions: Salmonella enterica, 18 h
S. aureus Smith = assay: In vitro antibacterial activity (MIC), S. aureus Smith; conditions: Staphylococcus aureus, 18 h
N. catarrhalis 8193 = assay: In vitro antibacterial activity (MIC), N. catarrhalis 8193; conditions: 18 h
S. aureus 53-180 = assay: In vitro antibacterial activity (MIC), S. aureus 53-180; conditions: Staphylococcus aureus, 53180, 18 h
P. vulgaris 6896 = assay: In vitro antibacterial activity (MIC), P. vulgaris 6896; conditions: Proteus vulgaris, 6896, 18 h
E. coli 9637 = assay: In vitro antibacterial activity (MIC), E. coli 9637; conditions: Escherichia coli, 9637, 18 h

Compound	MIC (K. pneumoniae 10031)	MIC (S. paratyphi 11737)	MIC (S. aureus Smith)	MIC (N. catarrhalis 8193)	MIC (S. aureus 53-180)	MIC (P. vulgaris 6896)	MIC (E. coli 9637)
Cc1cc(C)cc(Cn2ccc3c4c(N)nc(N)nc4ccc32)c1 [Example 26]	0.244 µg/mL (≈ 0.769 µM)	15.6 µg/mL (≈ 49.1 µM)	0.976 µg/mL (≈ 3.08 µM)	0.031 µg/mL (≈ 0.0977 µM)	0.488 µg/mL (≈ 1.54 µM)	15.6 µg/mL (≈ 49.1 µM)	7.81 µg/mL (≈ 24.6 µM)
Cn1c(-c2ccccc2)cc2c3c(N)nc(N)nc3ccc21 [Example 106, 7-Methyl-8-phenyl-7H-pyrrolo[3,2-f]-quinazoline-1,3-diamine]	3.9 µg/mL (≈ 13.5 µM)	> 250 µg/mL	62.5 µg/mL (≈ 216 µM)	31.3 µg/mL (≈ 108 µM)	125 µg/mL (≈ 432 µM)	> 250 µg/mL	> 250 µg/mL
Nc1nc(N)c2c(ccc3[nH]c(-c4ccccc4)cc32)n1 [Example 105, 8-Phenyl-7H-pyrrolo[3,2-f]-quinazoline-1,3-diamine]	31.3 µg/mL (≈ 114 µM)	125 µg/mL (≈ 454 µM)	7.81 µg/mL (≈ 28.4 µM)	62.5 µg/mL (≈ 227 µM)	15.6 µg/mL (≈ 56.7 µM)	> 250 µg/mL	62.5 µg/mL (≈ 227 µM)
Nc1nc(N)c2c(ccc3c2ccn3Cc2cccs2)n1 [Example 59]	0.061 µg/mL (≈ 0.207 µM)	0.244 µg/mL (≈ 0.826 µM)	0.244 µg/mL (≈ 0.826 µM)	0.0019 µg/mL (≈ 0.00643 µM)	0.061 µg/mL (≈ 0.207 µM)	0.244 µg/mL (≈ 0.826 µM)	0.061 µg/mL (≈ 0.207 µM)
Nc1nc(N)c2c(ccc3c2ccn3Cc2ccc(C(=O)[O-])cc2)n1.[Na+] [Example 68, 7-(4-Carboxybenzyl)-7H-pyrrolo[3,2-f]-quinazoline-1,3-diamine, sodium salt]	> 250 µg/mL	> 250 µg/mL	250 µg/mL	62.5 µg/mL	250 µg/mL	250 µg/mL	> 250 µg/mL
Nc1nc(N)c2c(ccc3c2ccn3-c2ccc([N+](=O)[O-])cc2C(F)(F)F)n1 [Example 94]	0.488 µg/mL (≈ 1.26 µM)	62.5 µg/mL (≈ 161 µM)	0.122 µg/mL (≈ 0.314 µM)	0.061 µg/mL (≈ 0.157 µM)	0.122 µg/mL (≈ 0.314 µM)	125 µg/mL (≈ 322 µM)	31.3 µg/mL (≈ 80.6 µM)
Nc1nc(N)c2c(ccc3c2ccn3-c2ccc3ccccc3n2)n1 [Example 86]	> 250 µg/mL	> 250 µg/mL	> 250 µg/mL	0.122 µg/mL (≈ 0.374 µM)	> 250 µg/mL	> 250 µg/mL	> 250 µg/mL
Nc1nc(N)c2c(ccc3c2ccn3-c2ccccc2C(F)(F)F)n1 [Example 93]	0.061 µg/mL (≈ 0.178 µM)	0.976 µg/mL (≈ 2.84 µM)	0.061 µg/mL (≈ 0.178 µM)	0.0076 µg/mL (≈ 0.0221 µM)	0.031 µg/mL (≈ 0.0903 µM)	1.95 µg/mL (≈ 5.68 µM)	0.244 µg/mL (≈ 0.711 µM)
Nc1nc(N)c2c(ccc3c2ccn3-c2ccnc3cc(Cl)ccc23)n1 [Example 89]	0.488 µg/mL (≈ 1.35 µM)	> 250 µg/mL	0.488 µg/mL (≈ 1.35 µM)	0.244 µg/mL (≈ 0.676 µM)	0.122 µg/mL (≈ 0.338 µM)	250 µg/mL (≈ 693 µM)	15.6 µg/mL (≈ 43.2 µM)
CCOC(=O)c1ccc(-n2ccc3c4c(N)nc(N)nc4ccc32)cc1 [Example 75]	250 µg/mL (≈ 720 µM)	> 250 µg/mL	125 µg/mL (≈ 360 µM)	0.122 µg/mL (≈ 0.351 µM)	7.81 µg/mL (≈ 22.5 µM)	> 250 µg/mL	> 250 µg/mL
N#Cc1ccccc1-n1ccc2c3c(N)nc(N)nc3ccc21 [Example 73]	0.0152 µg/mL (≈ 0.0506 µM)	0.122 µg/mL (≈ 0.406 µM)	0.031 µg/mL (≈ 0.103 µM)	0.0038 µg/mL (≈ 0.0127 µM)	0.0152 µg/mL (≈ 0.0506 µM)	0.488 µg/mL (≈ 1.62 µM)	0.122 µg/mL (≈ 0.406 µM)
CS(=O)(=O)c1ccc(-n2ccc3c4c(N)nc(N)nc4ccc32)cc1 [Example 74]	0.244 µg/mL (≈ 0.69 µM)	7.81 µg/mL (≈ 22.1 µM)	0.976 µg/mL (≈ 2.76 µM)	0.0152 µg/mL (≈ 0.043 µM)	0.976 µg/mL (≈ 2.76 µM)	15.6 µg/mL (≈ 44.1 µM)	0.976 µg/mL (≈ 2.76 µM)
Cn1c2c(c3c4c(N)nc(N)nc4ccc31)CCCC2 [Example 109, 8,9,10,11-Tetrahydro-7-methyl-7H-pyrimido[4,5-c]carbazole-1,3-diamine]	62.5 µg/mL (≈ 234 µM)	250 µg/mL (≈ 935 µM)	62.5 µg/mL (≈ 234 µM)	3.9 µg/mL (≈ 14.6 µM)	62.5 µg/mL (≈ 234 µM)	> 250 µg/mL	> 250 µg/mL
COc1cccc(Cn2ccc3c4c(N)nc(N)nc4ccc32)c1OC [Example 35]	0.488 µg/mL (≈ 1.4 µM)	15.6 µg/mL (≈ 44.6 µM)	0.488 µg/mL (≈ 1.4 µM)	0.122 µg/mL (≈ 0.349 µM)	0.244 µg/mL (≈ 0.698 µM)	7.81 µg/mL (≈ 22.4 µM)	0.488 µg/mL (≈ 1.4 µM)
